From PubChem BioAssay (NCI)
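Test compounds were applied to cells in 96-well plates for 48 hours at 5 doses. GI50 = concentration required for 50% inhibition of growth. TGI is the concentration that stops growth completely.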

Tests used:
Assay in all cases: inhibition of tumour cell growth, NCI panel, 48 h
[1] = test system: UO-31 renal
[2] = test system: MOLT-4 leukemia
[3] = test system: DU-145 prostate
[4] = test system: SNB-75 CNS
[5] = test system: CAKI-1 renal
[6] = test system: HCT-15 colon
[7] = test system: PC-3 prostate
[8] = test system: HOP-62 NSCLC
[9] = test system: SF-295 CNS
[10] = test system: OVCAR-5 ovarian
[11] = test system: T-47D breast
[12] = test system: A498 renal
[13] = test system: K-562 leukemia
[14] = test system: SF-539 CNS
[15] = test system: NCI/ADR-RES ovarian
[16] = test system: SW-620 colon
[17] = test system: TK-10 renal
[18] = test system: SK-OV-3 ovarian
[19] = test system: MCF7 breast
[20] = test system: ACHN renal
[21] = test system: SK-MEL-28 melanoma
[22] = test system: MALME-3M melanoma
[23] = test system: SK-MEL-5 melanoma
[24] = test system: HS 578T breast
[25] = test system: UACC-257 melanoma
[26] = test system: M14 melanoma
[27] = test system: RXF 393 renal
[28] = test system: EKVX NSCLC
[29] = test system: IGROV1 ovarian
[30] = test system: OVCAR-4 ovarian
[31] = test system: MDA-MB-435
[32] = test system: HCT-116 colon
[33] = test system: RPMI-8226 leukemia
[34] = test system: 786-0 renal
[35] = test system: MDA-MB-231 breast
[36] = test system: A549 NSCLC
[37] = test system: NCI-H460 lung
[38] = test system: U251 CNS
[39] = test system: SK-MEL-2 melanoma
[40] = test system: OVCAR-3 ovarian
[41] = test system: COLO 205 colon
[42] = test system: NCI-H522 lung
[43] = test system: SF-268 CNS
[44] = test system: OVCAR-8 ovarian
[45] = test system: HL-60(TB) leukemia
[46] = test system: UACC-62 melanoma
[47] = test system: HT29 colon
[48] = test system: SR leukemia
[49] = test system: NCI-H226 lung
[50] = test system: SNB-19 CNS
[51] = test system: NCI-H23 lung
[52] = test system: HOP-92 NSCLC
[53] = test system: SN12C renal
[54] = test system: KM12 colon
[55] = test system: BT-549 breast
[56] = test system: CCRF-CEM leukemia
[57] = test system: LOX IMVI melanoma
[58] = test system: HCC-2998 colon

For `CC(C)(OCc1ccccc1)c1ccccc1P(c1ccccc1)c1ccccc1`, the TGI [1] was over 100 µM, the TGI [2] was 84.5 µM and the TGI [3] was over 100 µM. The TGI [4] was over 100 µM, the TGI [5] was over 100 µM and the TGI [6] was over 100 µM. It also gave a TGI [7] of over 100 µM, a TGI [8] of over 100 µM and a TGI [9] of over 100 µM. It also gave a TGI [10] of over 100 µM, a TGI [11] of over 100 µM and a TGI [12] of over 100 µM. It also gave a TGI [13] of over 100 µM, a TGI [14] of over 100 µM and a TGI [15] of over 100 µM. It also gave a TGI [16] of over 100 µM, a TGI [17] of over 100 µM and a TGI [18] of over 100 µM. It also gave a TGI [19] of over 100 µM, a TGI [20] of over 100 µM and a TGI [21] of over 100 µM. For the same compound, the TGI [22] was over 100 µM, the TGI [23] was over 100 µM and the TGI [24] was over 100 µM. For the same compound, the TGI [25] was over 100 µM, the TGI [26] was over 100 µM and the TGI [27] was over 100 µM. It also gave a TGI [28] of 91.2 µM, a TGI [29] of over 100 µM and a TGI [30] of over 100 µM. It also gave a TGI [31] of over 100 µM, a TGI [32] of over 100 µM and a TGI [33] of 22.8 µM. It also gave a TGI [34] of over 100 µM, a TGI [35] of over 100 µM and a TGI [36] of over 100 µM. The TGI [37] was over 100 µM, the TGI [38] was over 100 µM and the TGI [39] was over 100 µM. For the same compound, the TGI [40] was over 100 µM, the TGI [41] was over 100 µM and the TGI [42] was over 100 µM. For the same compound, the TGI [43] was over 100 µM, the TGI [44] was over 100 µM and the TGI [45] was 62.9 µM. For the same compound, the TGI [46] was over 100 µM, the TGI [47] was over 100 µM and the TGI [48] was over 100 µM. The TGI [49] was over 100 µM, the TGI [50] was over 100 µM and the TGI [51] was 94 µM. It also gave a TGI [52] of over 100 µM, a TGI [53] of over 100 µM and a TGI [54] of 58 µM. For the same compound, the TGI [55] was over 100 µM.

With `O=C(COc1cccc(/C=C2/Oc3ccccc3C2=O)c1)Nc1nccs1` the GI50 [56] was 1.89 µM, the TGI [56] was 3.73 µM and the GI50 [2] was 13 µM. It also gave a TGI [2] of 31.4 µM, a GI50 [3] of 27.8 µM and a TGI [3] of over 100 µM. The GI50 [4] was 17.1 µM, the TGI [4] was 58.1 µM and the GI50 [5] was 15.9 µM. It also gave a TGI [5] of 34.4 µM, a GI50 [6] of 28.3 µM and a TGI [6] of over 100 µM. It also gave a GI50 [7] of 15.7 µM, a TGI [7] of 58.1 µM and a GI50 [57] of 2.78 µM. The TGI [57] was 10.2 µM, the GI50 [8] was 38.3 µM and the TGI [8] was over 100 µM. For the same compound, the GI50 [9] was 36.4 µM, the TGI [9] was over 100 µM and the GI50 [10] was 44 µM. It also gave a TGI [10] of over 100 µM, a GI50 [11] of 16.8 µM and a TGI [11] of 58.5 µM. The GI50 [12] was 20.8 µM, the TGI [12] was 85.4 µM and the GI50 [13] was 16.4 µM. The TGI [13] was 53.7 µM, the GI50 [14] was 17.1 µM and the TGI [14] was 31.9 µM. The GI50 [15] was 30 µM, the TGI [15] was over 100 µM and the GI50 [16] was 27.4 µM. It also gave a TGI [16] of over 100 µM, a GI50 [17] of 15.9 µM and a TGI [17] of 68.7 µM. It also gave a GI50 [18] of 48.6 µM, a TGI [18] of over 100 µM and a GI50 [19] of 14.8 µM. It also gave a TGI [19] of over 100 µM, a GI50 [20] of 27.4 µM and a TGI [20] of over 100 µM. It also gave a GI50 [21] of 28.9 µM, a TGI [21] of over 100 µM and a GI50 [58] of 29 µM. The TGI [58] was 68.9 µM, the GI50 [22] was 21.2 µM and the TGI [22] was 50.9 µM. For the same compound, the GI50 [23] was 16.4 µM, the TGI [23] was 35.2 µM and the GI50 [24] was 24.4 µM. The TGI [24] was over 100 µM, the GI50 [25] was 20.7 µM and the TGI [25] was 56.3 µM. For the same compound, the GI50 [26] was 30.5 µM, the TGI [26] was over 100 µM and the GI50 [28] was 31.9 µM. For the same compound, the TGI [28] was over 100 µM, the GI50 [30] was 19.5 µM and the TGI [30] was 61.8 µM. The GI50 [31] was 21.2 µM, the TGI [31] was 68 µM and the GI50 [32] was 22.8 µM. It also gave a TGI [32] of over 100 µM, a GI50 [33] of 4.28 µM and a TGI [33] of 23.1 µM. It also gave a GI50 [34] of 3.3 µM, a TGI [34] of 14.4 µM and a GI50 [35] of 7.95 µM. The TGI [35] was 29.8 µM, the GI50 [36] was 23.6 µM and the TGI [36] was over 100 µM. The GI50 [37] was 31.6 µM, the TGI [37] was over 100 µM and the GI50 [38] was 20.8 µM. For the same compound, the TGI [38] was over 100 µM, the GI50 [40] was 14.6 µM and the TGI [40] was 38.8 µM. The GI50 [41] was 24.4 µM, the TGI [41] was 97.9 µM and the GI50 [43] was 6.23 µM. It also gave a TGI [43] of 26.6 µM, a GI50 [44] of 16.5 µM and a TGI [44] of 50.1 µM. It also gave a GI50 [45] of 2.86 µM, a TGI [45] of 8.58 µM and a GI50 [46] of 25.6 µM. It also gave a TGI [46] of 95.9 µM, a GI50 [47] of 32.7 µM and a TGI [47] of over 100 µM. For the same compound, the GI50 [48] was 4.09 µM, the TGI [48] was 15.9 µM and the GI50 [49] was 22.9 µM. It also gave a TGI [49] of 67.9 µM, a GI50 [50] of 25.4 µM and a TGI [50] of over 100 µM. The GI50 [51] was 24.8 µM, the TGI [51] was over 100 µM and the GI50 [52] was 10.1 µM. For the same compound, the TGI [52] was 30.2 µM, the GI50 [53] was 22.4 µM and the TGI [53] was over 100 µM. It also gave a GI50 [54] of 10.5 µM, a TGI [54] of 32.9 µM and a GI50 [55] of 14.9 µM. For the same compound, the TGI [55] was 43.7 µM.
